From patent US6806293B1, “Use of pheromone compounds having MAP kinase modulating activity” (Darley Pharmaceuticals LTD, priority 2001, dated 2004)

Assays:
MAP kinase [1] = assay: Screening method for pheromone compounds having MAP kinase modulating activity in Rat1 cells (Example 1); format: cell-based, rat; conditions: observed on screening in accordance with the described methods
Procedure: In a preferred screening method, as set forth in Example 1 herein, pheromone compounds with MAP kinase modulating activity are identified using Rat1 cells grown in cell culture dishes. Samples of the pheromone compound are added to respective cell culture dishes containing the Rat1 cells and incubated. A control group is established by treating a separate group of cell culture dishes containing Rat1 cells with the same solutions absent the pheromone compound. After incubation, the Rat1 cells are stimulated with epidermal growth factor to stimulate MAP kinase activation in the Rat1 cells. Upon completion of the incubation period, the Rat1 cells in each of the culture dishes are separately processed to obtain the corresponding cell extract containing proteins indicative of active kinase. The proteins are then separated using known electrophoresis techniques and prepared as a blot for the detection and measurement of active MAP kinase. The resulting blot is analyzed using densitometric techniques to measure the corresponding activity of the tested pheromone compound.
Rat1 cells were grown in 6 cm cell culture dishes in a tissue culture incubator at 37° C. in an atmosphere containing 5% carbon dioxide. The cells were serum-starved for 16 hours. […] A control group was established by adding to the remaining cell culture dishes the same solution absent the pheromone compound. After the 15 minute period, the Rat1 cells were stimulated with epidermal growth factor (EGF) (50 ng/ml) for about 15 minutes for one group and 30 minutes for a second group.
The Rat1 cells were then treated to remove the corresponding incubation medium and then the cells were rinsed twice each with 5 ml of cold phosphate buffered saline (PBS) and once with 5 ml of cold homogenizing buffer (Buffer H) containing 50 mM of β-glycerophosphate, (pH 7.3), 1.5 mM of ethylenebis(oxyethylenenitrilo)tetraacetic acid (EGTA), 1 mM of ethylenediaminetetraacetic acid (EDTA), 1 mM of dithiothreitol (DTT), 0.1 mM sodium orthovanadate, 1 mM benzamidine, 10 μg/ml of aprotinin, 10 μg/ml of leupeptin, and 2 μg/ml of pepstatin (2 μg/ml)+1% Triton-X-100.
The cells were harvested and lysed with 350 μl of cold Buffer H. Alternatively, the cells may be harvested and lysed with radioimmunoprotein assay buffer (RIPA buffer). Each extract was then centrifuged at 15,000×g for 15 minutes at 4° C. The resulting supernatants contained the protein extracts to be examined and were transferred to fresh, pre-cooled test tubes and kept on ice.
The proteins were then separated by sodium dodecyl sulfate-polyacrylamide gel electrophoresis (SDS-PAGE) and transferred, by western blotting, onto a nitrocellulose membrane.
The blot produced above was blocked with 2% bovine serum albumin (BSA) in Tris-buffered saline/Tween-20 (TBST) for 1 hour. The blot was then incubated with a monoclonal anti-active MAP kinase antibody obtained from Sigma, and diluted according to the manufacturer recommendations. The blot was incubated overnight at 4° C. Alternatively, the blot may also be incubated for about 30 minutes at 37° C., or from one to two hours at room temperature.
The treated blot was placed in a flat container and washed at least 3 times for 15 minutes each with TBST buffer at room temperature. The blot was then incubated with alkaline phosphatase-conjugated goat anti-mouse IgG obtained from Jackson Laboratories, diluted according to the manufacturer recommendations in TBST buffer for 45 minutes at room temperature. The blot was then subjected to a second washing, repeated 3 times, for 10 minutes each with TBST. An alkaline phosphatase (AP) detection technique was utilized to detect and measure the presence of active MAP kinase. Enhanced MAP kinase activity as compared to control is evidence that the compound is a MAP kinase activator. Lowered MAP kinase activity as compared to control is evidence that the compound is a MAP kinase inhibitor. […]

MAP kinase [2] = assay: MAP kinase activation in Rat1 cells compared to EGF and TPA (Example 3, western blot, densitometry); format: cell-based, rat; conditions: 15 minutes; for Activity (% of EGF-activation), Conc. 1 / Activity (% of TPA-activation), Conc. 1: compound 1 × 10^-4 M; for Activity (% of EGF-activation), Conc. 1 / Activity (% of EGF-activation), Conc. 2: relative to EGF 50 ng/ml; for Activity (% of TPA-activation), Conc. 1 / Activity (% of TPA-activation), Conc. 2: relative to TPA 100 nM; for Activity (% of EGF-activation), Conc. 2 / Activity (% of TPA-activation), Conc. 2: compound 1 × 10^-5 M
Procedure: Rat1 cells were grown in 6 cm cell culture dishes in a tissue culture incubator at 37° C. in an atmosphere containing 5% carbon dioxide. The Rat1 cells were serum-starved for 16 hours. Three groups of the Rat1 cells were then treated for 15 minutes with either epidermal growth factor (EGF) (50 ng/ml), 12-O-tetradecanoylphorbol-13-acetate (TPA) (100nM), or with one of the pheromone compounds at one of two concentrations identified in Table 2 below. EGF and TPA are compounds which are known to activate MAP kinase and therefore serve as a basis of comparing the relative activity of the pheromone compounds. The cells were then washed with phosphate buffered saline (PBS) and lysed with radioimmunoprotein assay (RIPA) buffer. The proteins were then separated by sodium dodecyl sulfate-polyacrylamide gel electrophoresis (SDS-PAGE), transferred onto a nitrocellulose membrane and probed with anti-MAPK antibodies to produce a blot. The MAP kinase activity for the EGF-treated cells, the TPA-treated cells and the pheromone compound-treated cells, was analyzed and calculated using densitometric analysis. The results shown in Table 2 are presented as percent of EGF-stimulated active MAP kinase levels or TPA-stimulated active MAP kinase levels, respectively.

CCCC/C=C\CCCCCCCCO [Cis-9-Tetradecenol]
mitogen-activating protein kinase modulation activity (activator or inhibitor) (MAP kinase [1]): activators
Activity (% of EGF-activation), Conc. 1 (MAP kinase [2]): 15%
Activity (% of TPA-activation), Conc. 1 (MAP kinase [2]): 105%
Activity (% of EGF-activation), Conc. 2 (MAP kinase [2]): 8%
Activity (% of TPA-activation), Conc. 2 (MAP kinase [2]): 35%

CCCC/C=C\CCCCCCCCC/C=C/C=O [Trans-2,Cis-13-Octadecadienal]
mitogen-activating protein kinase modulation activity (activator or inhibitor) (MAP kinase [1]): activators
Activity (% of EGF-activation), Conc. 1 (MAP kinase [2]): 4%
Activity (% of TPA-activation), Conc. 1 (MAP kinase [2]): 30%
Activity (% of EGF-activation), Conc. 2 (MAP kinase [2]): 8%
Activity (% of TPA-activation), Conc. 2 (MAP kinase [2]): 40%

CCCC/C=C\CCCCCCOC(C)=O [Cis-7-Dodecenyl-acetate]
mitogen-activating protein kinase modulation activity (activator or inhibitor) (MAP kinase [1]): activators
Activity (% of EGF-activation), Conc. 1 (MAP kinase [2]): 7%
Activity (% of TPA-activation), Conc. 1 (MAP kinase [2]): 20%
Activity (% of EGF-activation), Conc. 2 (MAP kinase [2]): 8%
Activity (% of TPA-activation), Conc. 2 (MAP kinase [2]): 17%

CCCCC/C=C\CCCCCCCCO [Cis-9-Pentadecenol]
mitogen-activating protein kinase modulation activity (activator or inhibitor) (MAP kinase [1]): activators
Activity (% of EGF-activation), Conc. 1 (MAP kinase [2]): 14%
Activity (% of TPA-activation), Conc. 1 (MAP kinase [2]): 95%
Activity (% of EGF-activation), Conc. 2 (MAP kinase [2]): 6%
Activity (% of TPA-activation), Conc. 2 (MAP kinase [2]): 30%

CCCCCC/C=C\CCCCCC=O [Cis-7-Tetradecenal]
mitogen-activating protein kinase modulation activity (activator or inhibitor) (MAP kinase [1]): activators
Activity (% of EGF-activation), Conc. 1 (MAP kinase [2]): 7%
Activity (% of TPA-activation), Conc. 1 (MAP kinase [2]): 20%
Activity (% of EGF-activation), Conc. 2 (MAP kinase [2]): 5%
Activity (% of TPA-activation), Conc. 2 (MAP kinase [2]): 10%

CC/C=C\C/C=C\CCC/C=C/CCO [Trans-3,Cis-8,Cis-11-Tetradecatrienol]
mitogen-activating protein kinase modulation activity (activator or inhibitor) (MAP kinase [1]): activators
Activity (% of EGF-activation), Conc. 1 (MAP kinase [2]): 6%
Activity (% of TPA-activation), Conc. 1 (MAP kinase [2]): 10%
Activity (% of EGF-activation), Conc. 2 (MAP kinase [2]): 5%
Activity (% of TPA-activation), Conc. 2 (MAP kinase [2]): 50%

CCCCCCCC/C=C\CCCOC(C)=O [Cis-4-Tridecen-1-yl-acetate]
mitogen-activating protein kinase modulation activity (activator or inhibitor) (MAP kinase [1]): activators
Activity (% of EGF-activation), Conc. 1 (MAP kinase [2]): 3%
Activity (% of TPA-activation), Conc. 1 (MAP kinase [2]): 7%
Activity (% of EGF-activation), Conc. 2 (MAP kinase [2]): 5%
Activity (% of TPA-activation), Conc. 2 (MAP kinase [2]): 30%

CCCC/C=C\CCCCCCCCOC=O [Cis-9-Tetradecenyl-formate]
mitogen-activating protein kinase modulation activity (activator or inhibitor) (MAP kinase [1]): activators
Activity (% of EGF-activation), Conc. 1 (MAP kinase [2]): 12%
Activity (% of TPA-activation), Conc. 1 (MAP kinase [2]): 90%
Activity (% of EGF-activation), Conc. 2 (MAP kinase [2]): 12%
Activity (% of TPA-activation), Conc. 2 (MAP kinase [2]): 55%

CCCCCCCCCC/C=C\CCCCC(C)C [Cis-2-methyl-7-Octadecene]
mitogen-activating protein kinase modulation activity (activator or inhibitor) (MAP kinase [1]): activators
Activity (% of EGF-activation), Conc. 1 (MAP kinase [2]): 8%
Activity (% of TPA-activation), Conc. 1 (MAP kinase [2]): 60%
Activity (% of EGF-activation), Conc. 2 (MAP kinase [2]): 8%
Activity (% of TPA-activation), Conc. 2 (MAP kinase [2]): 45%

CCCCCC/C=C\CCCCCCO [Cis-7-Tetradecenol]
mitogen-activating protein kinase modulation activity (activator or inhibitor) (MAP kinase [1]): activators
Activity (% of EGF-activation), Conc. 1 (MAP kinase [2]): 9%
Activity (% of TPA-activation), Conc. 1 (MAP kinase [2]): 30%
Activity (% of EGF-activation), Conc. 2 (MAP kinase [2]): 9%
Activity (% of TPA-activation), Conc. 2 (MAP kinase [2]): 25%

CCCCCCCC/C=C\CCCCCCCCCCC [Cis-9-Heneicosene]
mitogen-activating protein kinase modulation activity (activator or inhibitor) (MAP kinase [1]): activators
Activity (% of EGF-activation), Conc. 2 (MAP kinase [2]): 3%
Activity (% of TPA-activation), Conc. 2 (MAP kinase [2]): 22%

CCCCC/C=C\CCCC(=O)CCCCCCCCCC [cis-6-heneicosene-11-one]
mitogen-activating protein kinase modulation activity (activator or inhibitor) (MAP kinase [1]): activators

C/C=C/CCCCCCCCCO [Trans-10-Dodecenol]
mitogen-activating protein kinase modulation activity (activator or inhibitor) (MAP kinase [1]): activators
Activity (% of EGF-activation), Conc. 1 (MAP kinase [2]): 2%
Activity (% of TPA-activation), Conc. 1 (MAP kinase [2]): 10%
Activity (% of EGF-activation), Conc. 2 (MAP kinase [2]): 10%
Activity (% of TPA-activation), Conc. 2 (MAP kinase [2]): 60%

Cis-9-Undecenyl-acetate
mitogen-activating protein kinase modulation activity (activator or inhibitor) (MAP kinase [1]): activators
Activity (% of EGF-activation), Conc. 1 (MAP kinase [2]): 18%
Activity (% of TPA-activation), Conc. 1 (MAP kinase [2]): 115%
Activity (% of EGF-activation), Conc. 2 (MAP kinase [2]): 3%
Activity (% of TPA-activation), Conc. 2 (MAP kinase [2]): 10%

CCCCCC/C=C\CCCCCCOC(C)=O [Cis-7-Tetradecenyl-acetate]
mitogen-activating protein kinase modulation activity (activator or inhibitor) (MAP kinase [1]): activators
Activity (% of EGF-activation), Conc. 1 (MAP kinase [2]): 8%
Activity (% of TPA-activation), Conc. 1 (MAP kinase [2]): 21%
Activity (% of EGF-activation), Conc. 2 (MAP kinase [2]): 10%
Activity (% of TPA-activation), Conc. 2 (MAP kinase [2]): 80%

CCCCCC(C)=O [2-Heptanone]
mitogen-activating protein kinase modulation activity (activator or inhibitor) (MAP kinase [1]): activators
Activity (% of EGF-activation), Conc. 1 (MAP kinase [2]): 5%
Activity (% of TPA-activation), Conc. 1 (MAP kinase [2]): 14%
Activity (% of EGF-activation), Conc. 2 (MAP kinase [2]): 7%
Activity (% of TPA-activation), Conc. 2 (MAP kinase [2]): 50%

Heneicosene-11-one
mitogen-activating protein kinase modulation activity (activator or inhibitor) (MAP kinase [1]): activators
Activity (% of EGF-activation), Conc. 1 (MAP kinase [2]): 12%
Activity (% of TPA-activation), Conc. 1 (MAP kinase [2]): 42%
Activity (% of EGF-activation), Conc. 2 (MAP kinase [2]): 12%
Activity (% of TPA-activation), Conc. 2 (MAP kinase [2]): 22%

CCCCC/C=C\CCCCCCO [Cis-7-Tridecenol]
mitogen-activating protein kinase modulation activity (activator or inhibitor) (MAP kinase [1]): activators
Activity (% of EGF-activation), Conc. 1 (MAP kinase [2]): 12%
Activity (% of TPA-activation), Conc. 1 (MAP kinase [2]): 80%
Activity (% of EGF-activation), Conc. 2 (MAP kinase [2]): 9%
Activity (% of TPA-activation), Conc. 2 (MAP kinase [2]): 60%

CCCC/C=C/CCCCOC(C)=O [Trans-5-decenyl-acetate]
mitogen-activating protein kinase modulation activity (activator or inhibitor) (MAP kinase [1]): activators
Activity (% of EGF-activation), Conc. 1 (MAP kinase [2]): 1%
Activity (% of EGF-activation), Conc. 2 (MAP kinase [2]): 4%
Activity (% of TPA-activation), Conc. 2 (MAP kinase [2]): 18%

CCC(C)CCCC/C=C\CCCCCCC=O (stereo not drawn) [14-methyl-Cis-8-Hexadecenal]
mitogen-activating protein kinase modulation activity (activator or inhibitor) (MAP kinase [1]): activators
Activity (% of EGF-activation), Conc. 1 (MAP kinase [2]): 10%
Activity (% of TPA-activation), Conc. 1 (MAP kinase [2]): 75%
Activity (% of EGF-activation), Conc. 2 (MAP kinase [2]): 3%
Activity (% of TPA-activation), Conc. 2 (MAP kinase [2]): 15%

C=CC(C)(C)O [2-methyl-3-butene-2-ol]
mitogen-activating protein kinase modulation activity (activator or inhibitor) (MAP kinase [1]): activators
Activity (% of EGF-activation), Conc. 1 (MAP kinase [2]): 5%
Activity (% of TPA-activation), Conc. 1 (MAP kinase [2]): 35%
